Like-named read-outs stand apart in the source and are kept apart here.
Assays:
GVS hygroscopicity = format: physicochemical
Source text: The instruments and methods of analysis used in the polymorph screens described in Examples 5 are described in Example 4, above.

[1] = Isothermic (25° C.) DVS analysis of salts of the compound of Formula I; format: physicochemical
Source text: (FIG. 16D). […] Some hysteresis was observed. […] (FIG. 16C). […] (FIG. 16D).
(FIG. 18A). […] (FIG. 18B). […] Some hysteresis was observed. […] An overlay of FTIR spectra of the L- and D-malic acid salts is shown in FIG. 18F. ^1H NMR spectra of the L- and D-malic salts in DMSO-d^6 are shown in FIG. 18G-18H, respectively.

[2] = Solubility test of the L-malic acid salt at room temperature; format: physicochemical; conditions: DMSO, two lots
[3] = Second solubility study of the L-malic acid salt at elevated temperatures (60° C., 70° C.); format: physicochemical; conditions: for Solids dissolve at 70° C.?: 70° C. for approximately 3.0 hours
[4] = Stability screening of freebase and selected salts of Formula I, 40° C. and 75% RH, weekly HPLC over 4 weeks
[5] = Dynamic vapor sorption (DVS) of the compound of Formula II; format: physicochemical
Procedure: Approximately 10 mg of sample was placed into a mesh vapor sorption balance pan and loaded into a DVS-1 dynamic vapor sorption balance by Surface Measurement Systems. The sample was subjected to a ramping profile from 40-90% relative humidity (RH) at 10% increments, maintaining the sample at each step until a stable weight had been achieved (99.5% step completion). After completion of the sorption cycle, the sample was dried using the same procedure to 0% RH and then a second sorption cycle back to 40% RH. The weight change during the sorption/desorption cycles were plotted, allowing for the hygroscopic nature of the sample to be determined. XRPD analysis was then carried out on any solid retained.
The material appeared highly crystalline by XRPD (FIG. 62A). […] This event was followed by thermal degradation. […] (FIG. 62B).

[6] = Solvent solubility screen of the compound of Formula II; format: physicochemical; conditions: 40 °C, thermodynamic from solid, read-out: Approximate solubility
Procedure: A solvent solubility screen was conducted in 32 solvent systems as follows.
Between each addition, the mixture was checked for dissolution. If no dissolution was apparent, the mixture was heated to around 40° C. and checked again. This procedure was continued until dissolution was observed or until 100 volumes of solvent had been added. Undissolved material from the solubility screen was isolated and analyzed by XRPD.

## COc1ccc(CN2C3CC2CN(c2ccc(-c4cc(OCC(C)(C)O)cn5ncc(C#N)c45)cn2)C3)cn1 [Form 1]
GVS hygroscopicity
  Hygroscopicity by GVS (in words): moderately hygroscopic
GVS hygroscopicity; at 90% RH
  Weight increase by GVS: 2.6%

## COc1ccc(CN2CCN(c3ccc(-c4cc(-c5cnn(C)c5)cn5ncc(C#N)c45)cn3)CC2)cn1.O=C(O)C[C@H](O)C(=O)O [L-malic acid salt]
[1]; 80% relative humidity, 25° C.
  Mass gain by DVS: approximately 2.8%
[1]; isothermic 25° C.
  Hygroscopicity by DVS (in words): hygroscopic
[1]; sample remained a free-flowing powder
  Deliquescence upon removal from the DVS chamber: no observable deliquescence
[2]
  solubility: 14000 to 15000 µg/mL
[3]; 60° C. for 3.0 hours, solvent 0.1M HCl, Yes
  Solids dissolve at 60° C.?: Yes (>13.4 mg/mL)
[3]; 60° C. for 3.0 hours, solvent 2-methyl THF
  Solids dissolve at 60° C.?: No
[3]; 60° C. for 3.0 hours, solvent ACN
  Solids dissolve at 60° C.?: No
[3]; 60° C. for 3.0 hours, solvent Acetone
  Solids dissolve at 60° C.?: No
[3]; 60° C. for 3.0 hours, solvent DCE
  Solids dissolve at 60° C.?: No
[3]; 60° C. for 3.0 hours, solvent DMSO, Yes
  Solids dissolve at 60° C.?: Yes (>36 mg/mL)
[3]; 60° C. for 3.0 hours, solvent EtOAc
  Solids dissolve at 60° C.?: No
[3]; 60° C. for 3.0 hours, solvent EtOH
  Solids dissolve at 60° C.?: No
[3]; 60° C. for 3.0 hours, solvent IPA
  Solids dissolve at 60° C.?: No
[3]; 60° C. for 3.0 hours, solvent MEK
  Solids dissolve at 60° C.?: No
[3]; 60° C. for 3.0 hours, solvent MTBE
  Solids dissolve at 60° C.?: No
[3]; 60° C. for 3.0 hours, solvent MeOH
  Solids dissolve at 60° C.?: No
[3]; 60° C. for 3.0 hours, solvent Toluene
  Solids dissolve at 60° C.?: No
[3]; 60° C. for 3.0 hours, solvent iPAc
  Solids dissolve at 60° C.?: No
[3]; 60° C. for 3.0 hours, solvent water
  Solids dissolve at 60° C.?: No
[3]; solvent 2-methyl THF
  Solids dissolve at 70° C.?: No
[3]; solvent ACN
  Solids dissolve at 70° C.?: No
[3]; solvent DCE
  Solids dissolve at 70° C.?: No
[3]; solvent DMSO, Yes
  Solids dissolve at 70° C.?: Yes (>56 mg/mL)
[3]; solvent EtOAc
  Solids dissolve at 70° C.?: No
[3]; solvent EtOH
  Solids dissolve at 70° C.?: No
[3]; solvent IPA
  Solids dissolve at 70° C.?: No
[3]; solvent MEK
  Solids dissolve at 70° C.?: No
[3]; solvent MTBE
  Solids dissolve at 70° C.?: No
[3]; solvent Toluene
  Solids dissolve at 70° C.?: No
[3]; solvent iPAc
  Solids dissolve at 70° C.?: No
[3]; solvent water
  Solids dissolve at 70° C.?: No
[3]; solvent THF, cell says 65° C.
  Solids dissolve at 60° C.?: ~65 °C almost 12.3 mg/mL
[4]; 40° C. and 75% RH, T = 0 to 4 weeks
  Absolute % change: 0.5%
[4]; stored at 40° C. and 75% RH, 1 week
  Stability, HPLC analysis, T = 1 week: 97.7%
[4]; stored at 40° C. and 75% RH, 2 weeks
  Stability, HPLC analysis, T = 2 weeks: 97.4%
[4]; stored at 40° C. and 75% RH, 3 weeks
  Stability, HPLC analysis, T = 3 weeks: 97.4%
[4]; stored at 40° C. and 75% RH, 4 weeks
  Stability, HPLC analysis, T = 4 weeks: 97.3%
[4]; stored at 40° C. and 75% RH, T = 0
  Stability, HPLC analysis, T = 0: 97.8%

## COc1ccc(CN2C3CC2CN(c2ccc(-c4cc(OCC(C)(C)O)cn5ncc(C#N)c45)cn2)C3)cn1 [compound of Formula II, 6-(2-hydroxy-2-methylpropoxy)-4-(6-(6-((6-methoxypyridin-3-yl)methyl)-3,6-diazabicyclo[3.1.1]heptan-3-yl)pyridin-3-yl)pyrazolo[1,5-a]pyridine-3-carbonitrile]
[5]
  Hygroscopicity by DVS (in words): moderately hygroscopic
[5]; 90% RH
  Weight increase by DVS: around 3.6%
[5]; XRPD after DVS
  Change in Form post-DVS: No change in Form
[6]; 1-Butanol, organic solvent or mixture
  solubility: < 5000 µg/mL
[6]; 1-Propanol, organic solvent or mixture
  solubility: < 5000 µg/mL
[6]; organic solvent or mixture, 1,4-Dioxane, (P) partial solubility at 100 volumes
  solubility: < 5000 µg/mL
[6]; organic solvent or mixture, 2-Ethoxyethanol, (P) partial solubility at 100 volumes
  solubility: < 5000 µg/mL
[6]; organic solvent or mixture, 2-Methyl THF, (P) partial solubility at 100 volumes
  solubility: < 5000 µg/mL
[6]; organic solvent or mixture, Anisole, (P) partial solubility at 100 volumes
  solubility: < 5000 µg/mL
[6]; organic solvent or mixture, CHCl3, (P) partial solubility at 100 volumes
  solubility: < 5000 µg/mL
[6]; organic solvent or mixture, Cyclohexanone, (P) partial solubility at 100 volumes
  solubility: < 5000 µg/mL
[6]; organic solvent or mixture, DCM, (P) partial solubility at 100 volumes
  solubility: < 5000 µg/mL
[6]; organic solvent or mixture, Nitromethane, (P) partial solubility at 100 volumes
  solubility: < 5000 µg/mL
[6]; organic solvent or mixture, THF, (P) partial solubility at 100 volumes
  solubility: < 5000 µg/mL
[6]; Acetone, organic solvent or mixture
  solubility: < 5000 µg/mL
[6]; Acetone:Water (50%), aqueous with cosolvent or surfactant or cyclodextrin
  solubility: < 5000 µg/mL
[6]; Cyclohexane, organic solvent or mixture
  solubility: < 5000 µg/mL
[6]; DMSO, organic solvent or mixture
  solubility: 41000 µg/mL
[6]; EtOAc, organic solvent or mixture
  solubility: < 5000 µg/mL
[6]; Ethanol, organic solvent or mixture
  solubility: < 5000 µg/mL
[6]; IPA, organic solvent or mixture
  solubility: < 5000 µg/mL
[6]; MEK, organic solvent or mixture
  solubility: < 5000 µg/mL
[6]; MIBK, organic solvent or mixture
  solubility: < 5000 µg/mL
[6]; MeCN:Water (20%), aqueous with cosolvent or surfactant or cyclodextrin
  solubility: 5000 µg/mL
[6]; MeOAc, organic solvent or mixture
  solubility: < 5000 µg/mL
[6]; NMP, organic solvent or mixture
  solubility: 17000 µg/mL
[6]; THF:Water (1%), organic solvent or mixture
  solubility: 48000 µg/mL
[6]; Water, water
  solubility: < 5000 µg/mL

## COc1ccc(CN2C3CC2CN(c2ccc(-c4cc(OCC(C)(C)O)cn5ncc(C#N)c45)cn2)C3)cn1.O=P(O)(O)O [phosphate salt]
GVS hygroscopicity
  Hygroscopicity by GVS (in words): highly hygroscopic
  Weight increase by GVS: approximately 14%
Ambient temperature and light, 40° C./75% RH, 80° C.
  Form and crystallinity by XRPD after 7-day stability tests: no change in form or crystallinity
Stored 7 days at 40° C./75% RH
  Purity after 7-day stability storage: 97.44%
Stored 7 days at 80° C.
  Purity after 7-day stability storage: 64.96%
Stored 7 days at RT (ambient temperature and light)
  Purity after 7-day stability storage: 98.03%
